From paper PMC3485383 (Biochemistry, 2012)

Legend:
[1] = target: T1, cytochrome P450 2B6 (Homo sapiens, UniProt P20813, K262R/Y226H); assay: X-ray crystal structure; format: biochemical
T1 sequence (P20813 29-491 Y226H/K262R): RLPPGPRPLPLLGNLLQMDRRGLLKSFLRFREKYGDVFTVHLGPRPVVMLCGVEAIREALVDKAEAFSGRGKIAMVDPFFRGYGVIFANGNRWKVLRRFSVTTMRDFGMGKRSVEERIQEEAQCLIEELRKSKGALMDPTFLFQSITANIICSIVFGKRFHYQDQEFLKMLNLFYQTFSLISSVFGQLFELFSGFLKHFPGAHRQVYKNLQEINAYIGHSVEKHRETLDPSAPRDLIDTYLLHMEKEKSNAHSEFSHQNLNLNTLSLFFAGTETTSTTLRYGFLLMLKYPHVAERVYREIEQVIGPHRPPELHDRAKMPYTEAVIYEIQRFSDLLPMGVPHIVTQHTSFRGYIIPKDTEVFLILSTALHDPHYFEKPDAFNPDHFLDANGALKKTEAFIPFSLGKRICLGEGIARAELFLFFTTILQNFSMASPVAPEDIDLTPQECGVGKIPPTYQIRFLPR

[2] = target: T2, cytochrome P450 2B4 (Oryctolagus cuniculus, UniProt P00178, H226Y); assay: X-ray crystal structure; format: binding
T2 sequence (P00178 28-491 H226Y): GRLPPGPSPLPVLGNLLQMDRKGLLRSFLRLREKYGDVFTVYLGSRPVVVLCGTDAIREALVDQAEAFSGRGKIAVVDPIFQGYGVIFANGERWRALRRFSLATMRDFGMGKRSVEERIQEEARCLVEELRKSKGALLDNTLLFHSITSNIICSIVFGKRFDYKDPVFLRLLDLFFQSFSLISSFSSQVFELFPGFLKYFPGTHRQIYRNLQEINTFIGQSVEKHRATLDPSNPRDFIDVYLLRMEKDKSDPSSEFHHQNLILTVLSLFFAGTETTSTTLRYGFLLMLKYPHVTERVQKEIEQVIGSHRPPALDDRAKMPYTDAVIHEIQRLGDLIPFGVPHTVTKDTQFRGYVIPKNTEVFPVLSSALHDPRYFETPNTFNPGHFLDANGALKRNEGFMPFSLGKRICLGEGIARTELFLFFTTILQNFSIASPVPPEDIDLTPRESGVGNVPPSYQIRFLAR

Compound: CCOC(=O)C1=C(COCCN)NC(C)=C(C(=O)OC)C1c1ccccc1Cl (centres unmarked) [amlodipine]
- IC50 [1]: 1.6 µM
- Kd [2]: 2.06 µM
